Literature values as cited in patent publication US10293050B2, “Macrolide dosage forms” (Micell Technologies, Inc., priority 2010, dated 2019).

Assays:
[1] = not given; remark: listed apart in the source
[2] = not given; remark: listed apart in the source

CO[C@H]1C[C@@H]2CC[C@@H](C)[C@@](O)(O2)C(=O)C(=O)N2CCCC[C@H]2C(=O)O[C@H]([C@H](C)C[C@@H]2CC[C@@H](O)[C@H](OC)C2)CC(=O)[C@H](C)/C=C(\C)[C@@H](O)[C@@H](OC)C(=O)[C@H](C)C[C@H](C)/C=C/C=C/C=C/1C [Rapamycin]
bioavailability (Rapamune oral tablets or solution): < 14% | hepatic biotransformation (in vivo): extensive hepatic biotransformation | blood concentrations (once daily oral dosing, immunosuppressive dose 2 or 5 mg daily): 6 to 50 ng/mL | protein binding [1]: high protein binding | aqueous solubility [2]: poor aqueous solubility
